# Measurements reported in US20240254109A1, “SALT CONTAINING PIPERAZINE POLYCYCLIC DERIVATIVE, CRYSTAL FORM THEREOF, PREPARATION METHOD THEREFOR, AND USE THEREOF” (Shanghai Hansoh Biomedical Co., Ltd., priority 2021, published 2024).
# Counter-ions that a name gives are not always drawn.
# Columns and labels:
# [1] = Thermodynamic stability experiment of crystal form (pulping in solvents); format: physicochemical; details: for Results (crystal form after pulping, XRPD): pulped 1 week at room temperature and 50° C.
# Experimental: 6. Thermodynamic Stability Experiment of Crystal Form
# An organic solvent with a certain solubility was selected. […] The supernatant was discarded, and the solid was dried in vacuum (−0.1 Mpa) overnight at 50° C. The XRPD of the solid was determined and compared with XRPD of raw compound salt.
# [2] = Hygroscopicity experiment of crystal form A of hydrochloride; format: physicochemical
# From the text: 5 Hygroscopicity Experiment
# [3] = Salt form quantification by HPLC-ELSD; format: physicochemical
# Experimental: 7. Salt Form Quantification
# The number of acids binding in the salt form was quantified by HPLC-ELSD test.
# An appropriate amount of NaCl was weighed, and a series of linear solutions of different concentrations with the diluent acetonitrile-water (50:50) was prepared.
# The above linear solution and hydrochloride samples solution was taken to filter.
# 7.3 Experimental results: The content of hydrochloric acid in hydrochloride was calculated according to the external standard method, and the quantitative results of hydrochloride are shown in Table 30.
# [4] = Pharmacokinetics study in rats; format: in vivo
# From the text: 8. Pharmacokinetics Study in Rats
# [5] = Grinding crystal transformation test; format: physicochemical; details: before and after grinding in a mortar for 5 min
# From the text: 4.6 Grinding Crystal Transformation Test
# [6] = Pressure crystal transformation test; format: physicochemical; details: before and after pressure, tablet press at maximum pressure
# From the text: 4.5 Pressure Crystal Transformation Test
# The tablet press was adjusted to the maximum pressure. It was pressed into a tablet and then was subjected to PXRD characterization.
# [7] = Solid stability experiment of crystal form of salt; format: physicochemical
# Experimental: 4. Solid Stability Experiment
# The physicochemical stability of crystal form of salt of compound N-(trans-3-(2-(4-(2,3-dichlorophenyl)piperazin-1-yl)ethyl)cyclobutyl)oxazole-2-carboxamide under the conditions of light 50001×, high temperature 60° C., high humidity 92.5% RH and high temperature and high humidity 50° C. 75% RH was investigated, which provided a basis for crystal form screening and compound crystal form storage.
# About 1 mg of different crystal forms of salt were taken and placed under the conditions of light 50001×, high temperature 60° C., high humidity 92.5% RH, high temperature and high humidity 50° C. 75% RH for 5 days and 10 days. The salt content was determined by HPLC and external standard method, and the change of relevant substances was calculated by chromatographic peak area normalization method.
# [8] = Crystal form stability study of hydrochloride for 30 days; format: physicochemical; details: 30 days
# Experimental: 9. Crystal Form Stability Study of Hydrochloride for 30 Days
# The 30 days stability of hydrochloride of N-(trans-3-(2-(4-(2,3-dichlorophenyl)piperazin-1-yl)ethyl)cyclobutyl)oxazole-2-carboxamide under four conditions of 60° C. (closed), 40° C. & RH 75% (open), 25° C./RH 92.5% (open) and light (5000±500 Lux) was detected, which provided scientific basis for the production, packaging, storage and transportation conditions of drugs.
# The diluent 80% methanol solution was added to prepare a solution containing about 0.5 mg/mL hydrochloride. The mixture was sonicated for 30 min to produce a clear solution. 1 mL of the solution was filtered and measured by HPLC. See “2.3.4” for the HPLC analysis method. The content of related substances was calculated according to the peak area normalization method, and the results are shown in Table 32 below.
# [9] = High humidity, 5 Days, listed as Crystal form A of hydrochloride
# [10] = High temperature and high humidity, 5 Days
# [11] = High temperature and high humidity, 10 Days
# [12] = Light, 5 Days, listed as Crystal form A of hydrochloride
# [13] = Light, 10 Days, listed as Crystal form A of hydrochloride
# [14] = light, 60° C., 92.5% RH, 50° C. 75% RH, 5 and 10 days
# [15] = light, 60° C., 92.5% RH, 40° C. & 75% RH
compound,measurement,setting,value
"O=C(N[C@H]1C[C@H](CCN2CCN(c3cccc(Cl)c3Cl)CC2)C1)c1ncco1 [crystal form A of hydrochloride, N-(trans-3-(2-(4-(2,3-dichlorophenyl)piperazin-1-yl)ethyl)cyclobutyl)oxazole-2-carboxamide]",thermodynamic stability of crystal form,[1],thermodynamically stable crystal form
same,"Results (crystal form after pulping, XRPD)","[1]; 1,4-Dioxane",Crystal form A
same,crystal form after being pulped by different solvents,"[1]; 1 week, room temperature and 50° C.",does not change
same,"Results (crystal form after pulping, XRPD)",[1]; 2-Butanone,Crystal form A
same,"Results (crystal form after pulping, XRPD)",[1]; 2-Methyl-tetrahydrofuran,Crystal form A
same,"Results (crystal form after pulping, XRPD)",[1]; Acetone,Crystal form A
same,"Results (crystal form after pulping, XRPD)",[1]; Acetonitrile,Crystal form A
same,"Results (crystal form after pulping, XRPD)",[1]; Dichloromethane,Crystal form A
same,"Results (crystal form after pulping, XRPD)",[1]; Ethanol,Crystal form A
same,"Results (crystal form after pulping, XRPD)",[1]; Ethyl acetate,Crystal form A
same,"Results (crystal form after pulping, XRPD)",[1]; Ethyl formate,Crystal form A
same,"Results (crystal form after pulping, XRPD)",[1]; Isopropanol,Crystal form A
same,"Results (crystal form after pulping, XRPD)",[1]; Methanol,Crystal form A
same,"Results (crystal form after pulping, XRPD)",[1]; Methyl tert-butyl ether,Crystal form A
same,"Results (crystal form after pulping, XRPD)",[1]; Tetrahydrofuran,Crystal form A
same,"Results (crystal form after pulping, XRPD)",[1]; Toluene,Crystal form A
same,"Results (crystal form after pulping, XRPD)",[1]; n-Heptane,Crystal form A
same,stability in humid environments,[2],stable in humid environments
same,Determination of Cl-percentage content in hydrochloride,[3]; Batch 1,7.82%
same,Determination of Cl-percentage content in hydrochloride,[3]; Batch 2,7.90%
same,exposure versus dose,[4]; dose of 100 mg/kg and 30 mg/kg,dose-related
same,in vivo exposure compared with crystal form B of free base,[4]; gavage,increased
same,crystal transformation (PXRD),[5],didn't undergo crystal transformation
same,crystal transformation (PXRD),[6],didn't undergo crystal transformation
same,Maximum single impurity increase %,[7]; [9],0.06%
same,Total impurity increase %,[7]; [9],0.06%
same,Maximum single impurity increase %,"[7]; High humidity, 10 Days",<0.02%
same,Total impurity increase %,"[7]; High humidity, 10 Days",<0.02%
same,Maximum single impurity increase %,[7]; [10],<0.02%
same,Total impurity increase %,[7]; [10],<0.02%
same,Maximum single impurity increase %,[7]; [11],<0.02%
same,Total impurity increase %,[7]; [11],<0.02%
same,Maximum single impurity increase %,"[7]; High temperature, 5 Days",<0.02%
same,Total impurity increase %,"[7]; High temperature, 5 Days",<0.02%
same,Maximum single impurity increase %,"[7]; High temperature, 10 Days",<0.02%
same,Total impurity increase %,"[7]; High temperature, 10 Days, listed as Crystal form A of hydrochloride",0.03%
same,Maximum single impurity increase %,[7]; [12],<0.02%
same,Total impurity increase %,[7]; [12],<0.02%
same,Maximum single impurity increase %,[7]; [13],<0.02%
same,Total impurity increase %,[7]; [13],<0.02%
same,crystal form stability,[7]; [14],stable under all conditions
same,impurities,[7]; [14],not significantly increased
same,stability,[8],good stability
same,crystal form change (PXRD),[8]; [15],does not undergo crystal form change
same,impurities (HPLC),[8]; [15],do not increase significantly
